Measured values published in ChEMBL document CHEMBL1201862, “PubChem BioAssay data set” (2004).
Structures can show the parent of a compound that is named as a salt.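 Cells were grown in 96-well plates and exposed to each compound for 48 hours at five concentrations; endpoints were interpolated linearly between bracketing concentrations, or set to the highest concentration if not reached. The concentration for 50% growth inhibition is given as GI50.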 Calls of active or inactive are those of the source. Rule as the data show it: active = GI50 up to about 1.1 µM and inactive = higher.

Legend:
Assay in all cases: NCI tumour cell line growth inhibition, 48 h
HT-29 = test system: HT-29
EKVX = test system: EKVX
SF-295 = test system: SF-295
HOP-92 = test system: HOP-92
COLO 205 = test system: COLO 205
MDA-MB-231 = test system: MDA-MB-231
CAKI-1 = test system: CAKI-1
HL-60 = test system: HL-60
CCRF-CEM = test system: CCRF-CEM
TK-10 = test system: TK-10
HCT-116 = test system: HCT-116
IGROV-1 = test system: IGROV-1
HOP-62 = test system: HOP-62
MCF7 = test system: MCF7
RXF 393 = test system: RXF 393
SNB-75 = test system: SNB-75
UO-31 = test system: UO-31
DU-145 = test system: DU-145
SK-OV-3 = test system: SK-OV-3
SK-MEL-5 = test system: SK-MEL-5
MDA-N = test system: MDA-N
NCI-H522 = test system: NCI-H522
HCT-15 = test system: HCT-15
Malme-3M = test system: Malme-3M
NCI-H460 = test system: NCI-H460
LOX IMVI = test system: LOX IMVI
UACC-257 = test system: UACC-257
BT-549 = test system: BT-549
NCI/ADR-RES = test system: NCI/ADR-RES
OVCAR-3 = test system: OVCAR-3
ACHN = test system: ACHN
UACC-62 = test system: UACC-62
MOLT-4 = test system: MOLT-4
OVCAR-8 = test system: OVCAR-8
NCI-H23 = test system: NCI-H23
SNB-19 = test system: SNB-19
Hs-578T = test system: Hs-578T
HCC 2998 = test system: HCC 2998
A549 = test system: A549
T47D = test system: T47D
NCI-H226 = test system: NCI-H226
M14 = test system: M14
MDA-MB-435 = test system: MDA-MB-435
SW-620 = test system: SW-620
A498 = test system: A498
SF-539 = test system: SF-539
PC-3 = test system: PC-3
U-251 = test system: U-251
SN12C = test system: SN12C
786-0 = test system: 786-0
OVCAR-4 = test system: OVCAR-4
K562 = test system: K562
SK-MEL-2 = test system: SK-MEL-2
KM12 = test system: KM12
SR = test system: SR
SF-268 = test system: SF-268
OVCAR-5 = test system: OVCAR-5
SK-MEL-28 = test system: SK-MEL-28
RPMI-8226 = test system: RPMI-8226

OC1(c2ccccc2)CSc2ncnn21 (centres undefined)
GI50 (HT-29): > 100 µM (inactive) | GI50 (EKVX): > 100 µM (inactive) | GI50 (SF-295): > 100 µM (inactive) | GI50 (HOP-92): > 100 µM (inactive) | GI50 (COLO 205): > 100 µM (inactive) | GI50 (MDA-MB-231): > 100 µM (inactive) | GI50 (CAKI-1): > 100 µM (inactive) | GI50 (HL-60): > 100 µM (inactive) | GI50 (CCRF-CEM): > 100 µM (inactive) | GI50 (TK-10): > 100 µM (inactive) | GI50 (HCT-116): > 100 µM (inactive) | GI50 (IGROV-1): > 100 µM (inactive) | GI50 (HOP-62): > 100 µM (inactive) | GI50 (MCF7): > 100 µM (inactive) | GI50 (RXF 393): > 100 µM (inactive) | GI50 (SNB-75): > 100 µM (inactive) | GI50 (UO-31): > 100 µM (inactive) | GI50 (DU-145): 41.1 µM (inactive) | GI50 (SK-OV-3): > 100 µM (inactive) | GI50 (SK-MEL-5): > 100 µM (inactive) | GI50 (MDA-N): > 100 µM (inactive) | GI50 (NCI-H522): > 100 µM (inactive) | GI50 (HCT-15): > 100 µM | GI50 (Malme-3M): > 100 µM (inactive) | GI50 (NCI-H460): > 100 µM (inactive) | GI50 (LOX IMVI): > 100 µM (inactive) | GI50 (UACC-257): > 100 µM (inactive) | GI50 (BT-549): > 100 µM (inactive) | GI50 (NCI/ADR-RES): > 100 µM (inactive) | GI50 (OVCAR-3): > 100 µM (inactive) | GI50 (ACHN): > 100 µM (inactive) | GI50 (UACC-62): > 100 µM (inactive) | GI50 (MOLT-4): > 100 µM (inactive) | GI50 (OVCAR-8): > 100 µM (inactive) | GI50 (NCI-H23): > 100 µM (inactive) | GI50 (SNB-19): > 100 µM (inactive) | GI50 (Hs-578T): > 100 µM (inactive) | GI50 (HCC 2998): > 100 µM (inactive) | GI50 (A549): > 100 µM (inactive) | GI50 (T47D): > 100 µM (inactive) | GI50 (NCI-H226): > 100 µM (inactive) | GI50 (M14): > 100 µM (inactive) | GI50 (MDA-MB-435): > 100 µM (inactive) | GI50 (SW-620): > 100 µM (inactive) | GI50 (A498): > 100 µM (inactive) | GI50 (SF-539): > 100 µM (inactive) | GI50 (PC-3): > 100 µM (inactive) | GI50 (U-251): > 100 µM (inactive) | GI50 (SN12C): > 100 µM (inactive) | GI50 (786-0): > 100 µM (inactive) | GI50 (OVCAR-4): > 100 µM (inactive) | GI50 (K562): > 100 µM (inactive) | GI50 (SK-MEL-2): > 100 µM (inactive) | GI50 (KM12): > 100 µM (inactive) | GI50 (SR): > 100 µM (inactive) | GI50 (SF-268): > 100 µM (inactive)

CC(=O)Oc1ccn2nc(C)c(Br)c2c1
GI50 (HT-29): 53.3 µM (inactive) | GI50 (EKVX): > 83.2 µM (inactive) | GI50 (SF-295): > 100 µM (inactive) | GI50 (HOP-92): > 87.1 µM (inactive) | GI50 (COLO 205): 25.6 µM (inactive) | GI50 (MDA-MB-231): > 81.3 µM (inactive) | GI50 (HL-60): 25.9 µM (inactive) | GI50 (CCRF-CEM): 29.9 µM (inactive) | GI50 (TK-10): > 100 µM (inactive) | GI50 (HCT-116): > 100 µM (inactive) | GI50 (IGROV-1): > 100 µM (inactive) | GI50 (HOP-62): > 67.1 µM (inactive) | GI50 (MCF7): 47.8 µM (inactive) | GI50 (RXF 393): 65.3 µM (inactive) | GI50 (SNB-75): > 44.1 µM (inactive) | GI50 (DU-145): > 100 µM (inactive) | GI50 (SK-MEL-5): 42.6 µM (inactive) | GI50 (MDA-N): 49.3 µM (inactive) | GI50 (NCI-H522): 28.8 µM (inactive) | GI50 (HCT-15): 65.2 µM | GI50 (Malme-3M): 64.1 µM (inactive) | GI50 (NCI-H460): 98.2 µM (inactive) | GI50 (LOX IMVI): 34 µM (inactive) | GI50 (UACC-257): 36.2 µM (inactive) | GI50 (BT-549): > 100 µM (inactive) | GI50 (OVCAR-5): > 100 µM (inactive) | GI50 (NCI/ADR-RES): > 100 µM (inactive) | GI50 (OVCAR-3): 39.3 µM (inactive) | GI50 (ACHN): > 100 µM (inactive) | GI50 (UACC-62): 25.5 µM (inactive) | GI50 (MOLT-4): 43 µM (inactive) | GI50 (OVCAR-8): > 64.4 µM (inactive) | GI50 (NCI-H23): > 58.2 µM (inactive) | GI50 (SNB-19): > 100 µM (inactive) | GI50 (Hs-578T): > 100 µM (inactive) | GI50 (HCC 2998): > 100 µM (inactive) | GI50 (A549): > 70.5 µM (inactive) | GI50 (T47D): 99.1 µM (inactive) | GI50 (NCI-H226): > 100 µM (inactive) | GI50 (M14): > 100 µM (inactive) | GI50 (MDA-MB-435): 31.8 µM (inactive) | GI50 (SW-620): > 100 µM (inactive) | GI50 (A498): > 100 µM (inactive) | GI50 (SF-539): > 100 µM (inactive) | GI50 (PC-3): > 53.6 µM (inactive) | GI50 (U-251): 97.7 µM (inactive) | GI50 (SN12C): > 100 µM (inactive) | GI50 (786-0): > 100 µM (inactive) | GI50 (OVCAR-4): > 100 µM (inactive) | GI50 (K562): 39.2 µM (inactive) | GI50 (SK-MEL-2): > 54 µM (inactive) | GI50 (KM12): > 100 µM (inactive) | GI50 (SR): > 76.7 µM (inactive) | GI50 (SF-268): > 53.8 µM (inactive) | GI50 (SK-MEL-28): > 100 µM (inactive)

CCc1ccc2c(c1)N(CC(C)CN(C)C)c1ccccc1S2 (centres undefined) [ETYMEMAZINE HYDROCHLORIDE]
GI50 (RPMI-8226): 2.17 µM (inactive) | GI50 (HT-29): 3.12 µM (inactive) | GI50 (EKVX): 11.4 µM (inactive) | GI50 (SF-295): 9.64 µM (inactive) | GI50 (HOP-92): 4.66 µM (inactive) | GI50 (COLO 205): 3.29 µM (inactive) | GI50 (MDA-MB-231): 4.89 µM (inactive) | GI50 (CAKI-1): 5.06 µM (inactive) | GI50 (HL-60): 2.65 µM (inactive) | GI50 (CCRF-CEM): 2.18 µM (inactive) | GI50 (TK-10): 4.81 µM (inactive) | GI50 (HCT-116): 3.65 µM (inactive) | GI50 (IGROV-1): 4.98 µM (inactive) | GI50 (HOP-62): 6.38 µM (inactive) | GI50 (MCF7): 3.92 µM (inactive) | GI50 (RXF 393): 2.79 µM (inactive) | GI50 (SNB-75): 3 µM (inactive) | GI50 (UO-31): 2.73 µM (inactive) | GI50 (DU-145): 7.91 µM (inactive) | GI50 (SK-OV-3): 6.53 µM (inactive) | GI50 (SK-MEL-5): 3.78 µM (inactive) | GI50 (MDA-N): 5.5 µM (inactive) | GI50 (NCI-H522): 2.87 µM (inactive) | GI50 (HCT-15): 6.21 µM | GI50 (Malme-3M): 4.11 µM (inactive) | GI50 (NCI-H460): 3.33 µM (inactive) | GI50 (LOX IMVI): 3.54 µM (inactive) | GI50 (UACC-257): 2.74 µM (inactive) | GI50 (BT-549): 12.9 µM (inactive) | GI50 (OVCAR-5): 4.98 µM (inactive) | GI50 (NCI/ADR-RES): 5.22 µM (inactive) | GI50 (OVCAR-3): 4.88 µM (inactive) | GI50 (ACHN): 5.21 µM (inactive) | GI50 (UACC-62): 5.31 µM (inactive) | GI50 (MOLT-4): 0.736 µM (active) | GI50 (OVCAR-8): 7.94 µM (inactive) | GI50 (NCI-H23): 7.64 µM (inactive) | GI50 (SNB-19): 10.6 µM (inactive) | GI50 (Hs-578T): 6.01 µM (inactive) | GI50 (A549): 8.39 µM (inactive) | GI50 (T47D): 3.66 µM (inactive) | GI50 (NCI-H226): 9.86 µM (inactive) | GI50 (M14): 2.12 µM (inactive) | GI50 (MDA-MB-435): 2.87 µM (inactive) | GI50 (SW-620): 5.53 µM (inactive) | GI50 (A498): 7.38 µM (inactive) | GI50 (SF-539): 10.2 µM (inactive) | GI50 (PC-3): 4.93 µM (inactive) | GI50 (U-251): 5.12 µM (inactive) | GI50 (SN12C): 7.21 µM (inactive) | GI50 (786-0): 4.7 µM (inactive) | GI50 (OVCAR-4): 5.16 µM (inactive) | GI50 (K562): 0.37 µM (active) | GI50 (SK-MEL-2): 5.08 µM (inactive) | GI50 (KM12): 3.61 µM (inactive) | GI50 (SR): 0.298 µM (active) | GI50 (SF-268): 7.5 µM (inactive) | GI50 (SK-MEL-28): 2.21 µM (inactive)
